In US11034742B2, “Peptides with antibiotic potential against Mycobacterium tuberculosis” (LINNANE PHARMA AB, priority 2017, dated 2021):
“Also recorded” adds a separate entry of the source. Like-named read-outs stand apart in the source and are kept apart here. Marks after values point to notes of the source that are not given here. Positions of bridges follow the written chain, without caps; N, C: chain ends. Residues, ends and D or L forms follow the SMILES beside them.

What was measured:
[1] = system: M. tuberculosis; details: Table 1; from Schon et al. 2009; cited from earlier work
[2] = system: M. tuberculosis H37Rv; type: in vivo, BALB/c mice; details: 0.83 mg
[3] = target: T1, human neutrophil elastase (HNE) (Homo sapiens, UniProt P08246); assay: Protease sensitivity assay, HNE; type: in vitro ADME; details: isolated human neutrophil elastase (HNE), after 22 hours, 37° C., read-out: peptide breakdown by HNE
T1 construct: purchased Calbiochem (La Jolla, Calif.)
T1 sequence (P08246 30-267): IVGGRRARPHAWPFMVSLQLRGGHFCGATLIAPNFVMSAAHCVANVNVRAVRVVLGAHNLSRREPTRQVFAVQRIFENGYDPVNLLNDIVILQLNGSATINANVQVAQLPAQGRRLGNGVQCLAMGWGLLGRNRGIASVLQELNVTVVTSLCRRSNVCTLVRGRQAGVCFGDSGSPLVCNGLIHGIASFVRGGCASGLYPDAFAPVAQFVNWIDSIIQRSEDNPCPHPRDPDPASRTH
Protocol: (§1) The variant antimicrobial peptide of SEQ ID NO: 3 (1 μg) was incubated at 37° C. with human neutrophil elastase (HNE, 0.4 μg, 29 units/mg; Calbiochem (La Jolla, Calif.), Cathepsin G (0.4 μg, EMD Millipore) and human α-thrombin (0.4 μg Innovative Research) in a total volume of 20 μL for 6 h. Furthermore 2 μg of the variant antimicrobial peptide of SEQ ID NO: 3 was incubated with 0.4 μg of HNE for kinetic study of peptide degradations. The materials were analyzed on 10-20% precast SDS-PAGE Tris-Tricine gels (Life Technologies) and analyzed after staining with Coomassie Blue R-250. […]

[4] = system: primary human macrophages; assay: Cytotoxicity, ATPlite (cellular ATP levels); type: cell-based; details: 100 μM, 24 hours
Protocol: (§2) Human venous blood mononuclear cells were obtained from healthy volunteers using a Lymphoprep density gradient (Axis-Shield, Oslo, Norway) according to the manufacturers instructions. To obtain pure monocytes, the cell suspension was applied to CD14 micro beads (MACS), washed and passed through magnetic column according to manufacturers description. The monocytes were counted (Sysmex), diluted in RPMI medium containing GM-CSF (50 ng/mL) and seeded in 96-well plates (10^5/well) for a week to differentiate into macrophages.
(§3) The variant antimicrobial peptide of SEQ ID NO: 3 cytotoxicity was further examined by PrestoBlue® and ATPlite™ assays. Primary macrophages were treated with 100 μM variant antimicrobial peptide of SEQ ID NO: 3 or 50 μM Staurosporine (S-4400, Sigma) for 24 hours. Cell viability was assessed with PrestoBlue® fluorescence (A13261, Thermo Scientific) and cellular ATP levels using ATPlite™ kit (#6016943, Perkin Elmer) compared to untreated control, according to the manufacturers' instructions.

[5] = system: M. tuberculosis H37Rv; assay: Murine TB model, lung histology and immunohistochemistry; set-up: species or system BALB/c mice; details: mouse, in vivo
[6] = system: M. tuberculosis H37Rv and clinical isolate TB2016/268; type: cell-based, Mycobacterium tuberculosis
[7] = system: primary human macrophages; assay: Cytotoxicity, PrestoBlue (reducing metabolites); type: cell-based; details: 100 μM, 24 hours
Protocol: as §2, §3

[8] = target: T2, Cathepsin G (Homo sapiens, UniProt P08311); assay: Protease sensitivity assay, Cathepsin G; type: in vitro ADME; details: 37° C., 6 h
T2 construct: purchased EMD Millipore
T2 sequence (P08311 21-244): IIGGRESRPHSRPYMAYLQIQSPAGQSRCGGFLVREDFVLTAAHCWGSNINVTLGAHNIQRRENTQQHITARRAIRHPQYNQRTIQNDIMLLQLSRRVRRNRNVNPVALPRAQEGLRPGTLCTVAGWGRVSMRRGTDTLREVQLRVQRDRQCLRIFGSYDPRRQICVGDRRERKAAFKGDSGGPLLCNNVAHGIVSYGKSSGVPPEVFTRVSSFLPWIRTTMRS
Protocol: as §1

[9] = target: T3, human α-thrombin (Homo sapiens, UniProt P00734); assay: Protease sensitivity assay, α-thrombin; type: in vitro ADME; details: 37° C., 6 h
T3 construct: human α-thrombin (0.4 μg Innovative Research); purchased Innovative Research
Protocol: as §1

[10] = system: M. tuberculosis H37Rv and TB2016/268; type: cell-based, Mycobacterium tuberculosis; details: gold-labelled peptide, 6.3 μM
[11] = Cytotoxicity, MTT assay; type: cell-based, human; details: human, primary human monocyte-derived macrophages; 6.3 μM peptide concentration; read-out: macrophage viability (MTT)
Protocol: as §2
(§4) Primary macrophages were prepared from whole blood (see above). The medium was replaced with fresh medium containing 0, 6.3, 12.5, 25 or 100 μM peptides and incubated for 0, 1, 4 and 24 h in 5% CO2 atmosphere. For cytotoxicity measurement, 10 μl 3-(4,5-dimethylthiazol-2-yl)-2,5 diphenyltetrazolium bromide (MTT) solution (Sigma) was added to each well according to manufacturers instructions, and analyzed in a spectrophotometer at 580 nm.

[12] = system: primary human macrophages; assay: Cytotoxicity, MTT assay; type: cell-based; details: for macrophage viability (MTT): 6.3 μM peptide concentration; for toxicity to human cells / macrophages (in words): primary human macrophages
Protocol: as §2, §4

SMILES	MIC (mg/L) [1]	MIC (μM) [1]	lung CFU reduction vs control animals ([2]; five days of daily intra-tracheal treatment)	lung CFU reduction vs control animals ([2]; three days of daily intra-tracheal treatment)	metabolised at 22 h [3]	toxicity, cellular ATP levels (ATPlite) [4]	lung tissue damage, inflammation, bacterial and neutrophil counts (IHC, H&E) [5]	Mycobacterial killing efficiency [6]	toxicity, reducing metabolites (PrestoBlue) [7]	peptide degradation by Cathepsin G [8]	peptide degradation by human α-thrombin [9]	association of peptide with the mycobacterial membrane (TEM) [10]	viability at 6.3 µM [11]	macrophage viability (MTT) [12]	toxicity to human cells / macrophages (in words) [12]
CC[C@@H](CO)NCCN[C@@H](CC)CO [Ethambutol]	5.0* mg/L	24.5* μM													
NNC(=O)c1ccncc1 [Isoniazid]	0.2* mg/L	1.5* μM													
CC[C@H](C)[C@@H]1NC(=O)[C@H](CO)NC(=O)[C@H](CCCCN)NC(=O)[C@@H]2CSSC[C@@H](C(=O)N[C@@H](Cc3ccc(O)cc3)C(=O)O)NC(=O)[C@H](CCCCN)NC(=O)[C@@H]3CSSC[C@H](NC(=O)[C@H](CCC(N)=O)NC(=O)[C@H]([C@@H](C)CC)NC(=O)[C@H](CC(=O)O)NC(=O)[C@H](CC(=O)O)NC(=O)[C@H](CCC(=O)O)NC(=O)[C@H](CO)NC(=O)[C@H](Cc4c[nH]c5ccccc45)NC(=O)[C@@H]4CCCN4C(=O)CNC(=O)[C@H](CC(N)=O)NC(=O)[C@@H](NC(=O)CNC(=O)[C@H](Cc4ccccc4)NC(=O)CN)CSSC[C@H](NC(=O)[C@H](Cc4ccc(O)cc4)NC(=O)CNC(=O)CNC(=O)[C@H](CCCCN)NC(=O)[C@H](Cc4ccc(O)cc4)NC(=O)CNC(=O)[C@H](CCCCN)NC1=O)C(=O)N[C@@H](C)C(=O)N[C@@H](CCCNC(=N)N)C(=O)NCC(=O)NCC(=O)N[C@@H](Cc1ccccc1)C(=O)N[C@@H](C(C)C)C(=O)N3)C(=O)N[C@@H](Cc1c[nH]cn1)C(=O)N[C@@H](CC(N)=O)C(=O)N[C@@H](Cc1c[nH]cn1)C(=O)N2 [SEQ ID NO: 3] (H-GFGCNGPWSEDDIQCHNHCKSIKGYKGGYCARGGFVCKCY-OH; disulfide 4-30, 15-37, 19-39 (inferred); N-terminus and C-terminus assumed)			86%	46%	~50%	did not show any toxicity	less tissue damage, lower bacterial and neutrophil counts than infected controls; also recorded: low counts of both neutrophils and bacteria in the lungs	73.8%	did not show any toxicity	only HNE showed peptide degradation	only HNE showed peptide degradation	associated with the mycobacterial envelope within one hour of exposure and disrupted bacterial membranes; also recorded: associated with the mycobacterial membrane	87.5%	87.5%	not Toxic to Human Cells
CC[C@H](C)[C@@H]1NC(=O)[C@H](C)NC(=O)[C@@H]2CSSC[C@H](NC(=O)CNC(=O)[C@H](Cc3ccccc3)NC(=O)CN)C(=O)N[C@@H](CC(N)=O)C(=O)NCC(=O)N3CCC[C@H]3C(=O)N[C@@H](Cc3c[nH]c4ccccc34)C(=O)N[C@@H](CO)C(=O)N[C@@H](CCC(=O)O)C(=O)N[C@@H](CC(=O)O)C(=O)N[C@@H](CC(=O)O)C(=O)N[C@@H]([C@@H](C)CC)C(=O)N[C@@H](CCC(N)=O)C(=O)N[C@H]3CSSC[C@H](NC(=O)[C@H](C(C)C)NC(=O)[C@H](Cc4ccccc4)NC(=O)CNC(=O)CNC1=O)C(=O)N[C@@H](CCCCN)C(=O)N[C@H](C(=O)N[C@@H](Cc1ccc(O)cc1)C(=O)O)CSSC[C@H](NC(=O)[C@H](Cc1c[nH]cn1)NC(=O)[C@H](CC(N)=O)NC(=O)[C@H](Cc1c[nH]cn1)NC3=O)C(=O)N[C@@H](CCCCN)C(=O)N[C@@H](CO)C(=O)N[C@@H]([C@@H](C)CC)C(=O)N[C@@H](CCCCN)C(=O)NCC(=O)N[C@@H](Cc1ccc(O)cc1)C(=O)N[C@@H](CCCCN)C(=O)NCC(=O)NCC(=O)N[C@@H](Cc1ccc(O)cc1)C(=O)N2 [SEQ ID NO: 4] (H-GFGCNGPWSEDDIQCHNHCKSIKGYKGGYCAIGGFVCKCY-OH; disulfide 4-30, 15-37, 19-39 (inferred); N-terminus and C-terminus assumed)								74.8%					86.3%	86.3%	not Toxic to Human Cells
